Test results reported in US20230085307A1, “PYRIDAZINONE COMPOUND AND HERBICIDE” (NISSAN CHEMICAL CORPORATION, priority 2019, published 2023).

How the values were obtained:
barnyard grass [1] = assay: Test Example 3: herbicidal effect by foliage application, Wagner pot (Table 18, symbol H); assay type: in vivo, barnyard grass (Echinochloa crus-galli)
In short: (§1)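 Plants were sown in alluvial soil held under 0.1–0.5 cm standing water and grown 14 days in a greenhouse at 25–30 °C. An emulsifiable formulation, water-diluted to the set dose, was then sprayed onto the foliage, and effects were scored three weeks later using previously defined criteria.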

Chinese sprangletop = assay: Test Example 3: herbicidal effect by foliage application, Wagner pot (Table 18, symbol D); assay type: in vivo, chinese sprangletop (Leptochloa chinensis)
In short: as §1

rice flat sedge = assay: Test Example 3: herbicidal effect by foliage application, Wagner pot (Table 18, symbol E); assay type: in vivo, rice flat sedge (Cyperus iria)
In short: as §1

southern crabgrass [2] = assay: Test Example 4: herbicidal effect by soil treatment (Table 19, symbol F); assay type: in vivo, southern crabgrass (Digitaria ciliaris)
In short: (§2)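 Pre-emergence style soil spray: seeds under ~1.5 cm sterilized diluvial soil received a uniform coat of emulsion diluted to the predetermined herbicide amount. Greenhouse 25–30° C; readout at week three on previously defined criteria.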

green foxtail [3] = assay: Test Example 4: herbicidal effect by soil treatment (Table 19, symbol G); assay type: in vivo, green foxtail (Setaria viridis)
In short: as §2

barnyard grass [4] = assay: Test Example 4: herbicidal effect by soil treatment (Table 19, symbol H); assay type: in vivo, barnyard grass (Echinochloa crus-galli)
In short: as §2

wild oat [5] = assay: Test Example 4: herbicidal effect by soil treatment (Table 19, symbol I); assay type: in vivo, wild oat (Avena fatua)
In short: as §2

blackgrass [6] = assay: Test Example 4: herbicidal effect by soil treatment (Table 19, symbol J); assay type: in vivo, blackgrass (Alopecurus myosuroides)
In short: as §2

Italian ryegrass [7] = assay: Test Example 4: herbicidal effect by soil treatment (Table 19, symbol K); assay type: in vivo, Italian ryegrass (Lolium multiflorum)
In short: as §2

windgrass = assay: Test Example 4: herbicidal effect by soil treatment (Table 19, symbol L); assay type: in vivo, windgrass (Apera spica-venti)
In short: as §2

velvetleaf [8] = assay: Test Example 4: herbicidal effect by soil treatment (Table 19, symbol M); assay type: in vivo, velvetleaf (Abutilon theophrasti)
In short: as §2

redroot pigweed [9] = assay: Test Example 4: herbicidal effect by soil treatment (Table 19, symbol N); assay type: in vivo, redroot pigweed (Amaranthus retroflexus)
In short: as §2

lambsquarters [10] = assay: Test Example 4: herbicidal effect by soil treatment (Table 19, symbol O); assay type: in vivo, lambsquarters (Chenopodium album)
In short: as §2

chickweed [11] = assay: Test Example 4: herbicidal effect by soil treatment (Table 19, symbol P); assay type: in vivo, common chickweed (Stellaria media)
In short: as §2

persian speedwell [12] = assay: Test Example 4: herbicidal effect by soil treatment (Table 19, symbol R); assay type: in vivo, Persian speedwell (Veronica persica)
In short: as §2

southern crabgrass [13] = assay: Test Example 5: herbicidal effect by foliage application, plastic box (Table 20, symbol F); assay type: in vivo, southern crabgrass (Digitaria ciliaris); details: foliage application after 14-day growth, evaluated three weeks after application
In short: (§3)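 Plants were sown into sterilized diluvial soil under about 1.5 cm cover and kept in a greenhouse at 25° C. to 30° C. Fourteen days on, foliage received an even spray of the diluted emulsion. Herbicidal or crop effect was judged three weeks afterwards.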

green foxtail [14] = assay: Test Example 5: herbicidal effect by foliage application, plastic box (Table 20, symbol G); assay type: in vivo, green foxtail (Setaria viridis); details: foliage application after 14-day growth, evaluated three weeks after application
In short: as §3

barnyard grass [15] = assay: Test Example 5: herbicidal effect by foliage application, plastic box (Table 20, symbol H); assay type: in vivo, barnyard grass (Echinochloa crus-galli); details: foliage application after 14-day growth, evaluated three weeks after application
In short: as §3

wild oat [16] = assay: Test Example 5: herbicidal effect by foliage application, plastic box (Table 20, symbol I); assay type: in vivo, wild oat (Avena fatua); details: foliage application after 14-day growth, evaluated three weeks after application
In short: as §3

blackgrass [17] = assay: Test Example 5: herbicidal effect by foliage application, plastic box (Table 20, symbol J); assay type: in vivo, blackgrass (Alopecurus myosuroides); details: foliage application after 14-day growth, evaluated three weeks after application
In short: as §3

Italian ryegrass [18] = assay: Test Example 5: herbicidal effect by foliage application, plastic box (Table 20, symbol K); assay type: in vivo, Italian ryegrass (Lolium multiflorum); details: foliage application after 14-day growth, evaluated three weeks after application
In short: as §3

velvetleaf [19] = assay: Test Example 5: herbicidal effect by foliage application, plastic box (Table 20, symbol M); assay type: in vivo, velvetleaf (Abutilon theophrasti); details: foliage application after 14-day growth, evaluated three weeks after application
In short: as §3

redroot pigweed [20] = assay: Test Example 5: herbicidal effect by foliage application, plastic box (Table 20, symbol N); assay type: in vivo, redroot pigweed (Amaranthus retroflexus); details: foliage application after 14-day growth, evaluated three weeks after application
In short: as §3

chickweed [21] = assay: Test Example 5: herbicidal effect by foliage application, plastic box (Table 20, symbol P); assay type: in vivo, common chickweed (Stellaria media); details: foliage application after 14-day growth, evaluated three weeks after application
In short: as §3

persian speedwell [22] = assay: Test Example 5: herbicidal effect by foliage application, plastic box (Table 20, symbol R); assay type: in vivo, Persian speedwell (Veronica persica); details: foliage application after 14-day growth, evaluated three weeks after application
In short: as §3

lambsquarters [23] = assay: Test Example 5: herbicidal effect by foliage application, plastic box (Table 20, symbol O); assay type: in vivo, lambsquarters (Chenopodium album); details: 320 g/ha, foliage application after 14-day growth, evaluated three weeks after application
In short: as §3

[24] = amount of applied herbicide 272 g/ha
[25] = amount of applied herbicide 320 g/ha

## CCCC(=O)Oc1c(C)nn(C)c(=O)c1-c1c(-c2ccccc2OC(F)F)sc2cc(F)c(F)cc12 [5-022]
Barnyard grass [1]; 272 g/ha
  herbicidal effect on barnyard grass (H): 4 (Herbicidal rate of 70% or more and less than 90%)
Chinese sprangletop; 272 g/ha
  herbicidal effect on Chinese sprangletop (D): 3 (Herbicidal rate of 40% or more and less than 70%)
Rice flat sedge; 272 g/ha
  herbicidal effect on rice flat sedge (E): 3 (Herbicidal rate of 40% or more and less than 70%)
Southern crabgrass [2]; [24]
  F: southern crabgrass, herbicidal effect grade: 1 (Herbicidal rate of 5% or more and less than 20%)
Green foxtail [3]; [24]
  G: green foxtail, herbicidal effect grade: 3 (Herbicidal rate of 40% or more and less than 70%)
Barnyard grass [4]; [24]
  H: barnyard grass, herbicidal effect grade: 0 (Herbicidal rate of 5% or less (almost no effect))
Wild oat [5]; [24]
  I: wild oat, herbicidal effect grade: 0 (Herbicidal rate of 5% or less (almost no effect))
Blackgrass [6]; [24]
  J: blackgrass, herbicidal effect grade: 0 (Herbicidal rate of 5% or less (almost no effect))
Italian ryegrass [7]; [24]
  K: Italian ryegrass, herbicidal effect grade: 0 (Herbicidal rate of 5% or less (almost no effect))
windgrass; [24]
  L: windgrass, herbicidal effect grade: 0 (Herbicidal rate of 5% or less (almost no effect))
Velvetleaf [8]; [24]
  M: velvetleaf, herbicidal effect grade: 3 (Herbicidal rate of 40% or more and less than 70%)
Redroot pigweed [9]; [24]
  N: redroot pigweed, herbicidal effect grade: 4 (Herbicidal rate of 70% or more and less than 90%)
Lambsquarters [10]; [24]
  O: lambsquarters, herbicidal effect grade: 3 (Herbicidal rate of 40% or more and less than 70%)
Chickweed [11]; [24]
  P: chickweed, herbicidal effect grade: 3 (Herbicidal rate of 40% or more and less than 70%)
Persian speedwell [12]; [24]
  R: persian speedwell, herbicidal effect grade: 3 (Herbicidal rate of 40% or more and less than 70%)
Southern crabgrass [13]; [24]
  Herbicidal effect by foliage application, F: southern crabgrass: 4 (Herbicidal rate of 70% or more and less than 90%)
Green foxtail [14]; [24]
  Herbicidal effect by foliage application, G: green foxtail: 5 (Herbicidal rate of 90% or more (almost completely withered))
Barnyard grass [15]; [24]
  Herbicidal effect by foliage application, H: barnyard grass: 3 (Herbicidal rate of 40% or more and less than 70%)
Wild oat [16]; [24]
  Herbicidal effect by foliage application, I: wild oat: 0 (Herbicidal rate of 5% or less (almost no effect))
Blackgrass [17]; [24]
  Herbicidal effect by foliage application, J: blackgrass: 1 (Herbicidal rate of 5% or more and less than 20%)
Italian ryegrass [18]; [24]
  Herbicidal effect by foliage application, K: Italian ryegrass: 0 (Herbicidal rate of 5% or less (almost no effect))
Velvetleaf [19]; [24]
  Herbicidal effect by foliage application, M: velvetleaf: 5 (Herbicidal rate of 90% or more (almost completely withered))
Redroot pigweed [20]; [24]
  Herbicidal effect by foliage application, N: redroot pigweed: 5 (Herbicidal rate of 90% or more (almost completely withered))
Chickweed [21]; [24]
  Herbicidal effect by foliage application, P: chickweed: 5 (Herbicidal rate of 90% or more (almost completely withered))
Persian speedwell [22]; [24]
  Herbicidal effect by foliage application, R: persian speedwell: 4 (Herbicidal rate of 70% or more and less than 90%)

## Cc1nn(C)c(=O)c(-c2c(-c3ccc(F)cc3)sc3c(Cl)cccc23)c1O [4-015]
Barnyard grass [1]; 320 g/ha
  herbicidal effect on barnyard grass (H): 3 (Herbicidal rate of 40% or more and less than 70%)
Chinese sprangletop; 320 g/ha
  herbicidal effect on Chinese sprangletop (D): 3 (Herbicidal rate of 40% or more and less than 70%)
Rice flat sedge; 320 g/ha
  herbicidal effect on rice flat sedge (E): 5 (Herbicidal rate of 90% or more (almost completely withered))
Southern crabgrass [2]; [25]
  Herbicidal effect by soil treatment, F: southern crabgrass: 0 (Herbicidal rate of 5% or less (almost no effect))
Green foxtail [3]; [25]
  Herbicidal effect by soil treatment, G: green foxtail: 0 (Herbicidal rate of 5% or less (almost no effect))
Barnyard grass [4]; [25]
  Herbicidal effect by soil treatment, H: barnyard grass: 0 (Herbicidal rate of 5% or less (almost no effect))
Wild oat [5]; [25]
  Herbicidal effect by soil treatment, I: wild oat: 0 (Herbicidal rate of 5% or less (almost no effect))
Blackgrass [6]; [25]
  Herbicidal effect by soil treatment, J: blackgrass: 0 (Herbicidal rate of 5% or less (almost no effect))
Italian ryegrass [7]; [25]
  Herbicidal effect by soil treatment, K: Italian ryegrass: 0 (Herbicidal rate of 5% or less (almost no effect))
windgrass; [25]
  Herbicidal effect by soil treatment, L: windgrass: 0 (Herbicidal rate of 5% or less (almost no effect))
Velvetleaf [8]; [25]
  Herbicidal effect by soil treatment, M: velvetleaf: 0 (Herbicidal rate of 5% or less (almost no effect))
Redroot pigweed [9]; [25]
  Herbicidal effect by soil treatment, N: redroot pigweed: 2 (Herbicidal rate of 20% or more and less than 40%)
Lambsquarters [10]; [25]
  Herbicidal effect by soil treatment, O: lambsquarters: 3 (Herbicidal rate of 40% or more and less than 70%)
Chickweed [11]; [25]
  Herbicidal effect by soil treatment, P: chickweed: 0 (Herbicidal rate of 5% or less (almost no effect))
Persian speedwell [12]; [25]
  Herbicidal effect by soil treatment, R: persian speedwell: 0 (Herbicidal rate of 5% or less (almost no effect))
Southern crabgrass [13]; 320 g/ha
  herbicidal effect on F: southern crabgrass (evaluation grade 0-5): 0 (Herbicidal rate of 5% or less (almost no effect))
Green foxtail [14]; 320 g/ha
  herbicidal effect on G: green foxtail (evaluation grade 0-5): 0 (Herbicidal rate of 5% or less (almost no effect))
Barnyard grass [15]; 320 g/ha
  herbicidal effect on H: barnyard grass (evaluation grade 0-5): 0 (Herbicidal rate of 5% or less (almost no effect))
Wild oat [16]; 320 g/ha
  herbicidal effect on I: wild oat (evaluation grade 0-5): 0 (Herbicidal rate of 5% or less (almost no effect))
Blackgrass [17]; 320 g/ha
  herbicidal effect on J: blackgrass (evaluation grade 0-5): 0 (Herbicidal rate of 5% or less (almost no effect))
Italian ryegrass [18]; 320 g/ha
  herbicidal effect on K: Italian ryegrass (evaluation grade 0-5): 0 (Herbicidal rate of 5% or less (almost no effect))
Velvetleaf [19]; 320 g/ha
  herbicidal effect on M: velvetleaf (evaluation grade 0-5): 1 (Herbicidal rate of 5% or more and less than 20%)
Redroot pigweed [20]; 320 g/ha
  herbicidal effect on N: redroot pigweed (evaluation grade 0-5): 1 (Herbicidal rate of 5% or more and less than 20%)
Lambsquarters [23]
  herbicidal effect on O: lambsquarters (evaluation grade 0-5): 1 (Herbicidal rate of 5% or more and less than 20%)
Chickweed [21]; 320 g/ha
  herbicidal effect on P: chickweed (evaluation grade 0-5): 5 (Herbicidal rate of 90% or more (almost completely withered))
Persian speedwell [22]; 320 g/ha
  herbicidal effect on R: persian speedwell (evaluation grade 0-5): 4 (Herbicidal rate of 70% or more and less than 90%)
